The results in this text go back to ChEMBL document CHEMBL1821555, “Identification of a series of 4-[3-(quinolin-2-yl)-1,2,4-oxadiazol-5-yl]piperazinyl ureas as potent smoothened antagonist hedgehog pathway inhibitors” (Bioorg Med Chem Lett, 2011).

For series [1], the target named is T1, Protein smoothened (Homo sapiens, UniProt Q99835). Put plainly: Inhibition of Bodipy-labelled cyclopamine binding to Smo expressed in COS-1 cells at 10 uM in presence of 2% FBS after 4 to 6 hrs by FACS flow cytometric analysis. The format is cell-based. Background: Flow cytometry measures light scatter and fluorescence of single cells or particles in a stream.
T1 sequence (Q99835 whole entry): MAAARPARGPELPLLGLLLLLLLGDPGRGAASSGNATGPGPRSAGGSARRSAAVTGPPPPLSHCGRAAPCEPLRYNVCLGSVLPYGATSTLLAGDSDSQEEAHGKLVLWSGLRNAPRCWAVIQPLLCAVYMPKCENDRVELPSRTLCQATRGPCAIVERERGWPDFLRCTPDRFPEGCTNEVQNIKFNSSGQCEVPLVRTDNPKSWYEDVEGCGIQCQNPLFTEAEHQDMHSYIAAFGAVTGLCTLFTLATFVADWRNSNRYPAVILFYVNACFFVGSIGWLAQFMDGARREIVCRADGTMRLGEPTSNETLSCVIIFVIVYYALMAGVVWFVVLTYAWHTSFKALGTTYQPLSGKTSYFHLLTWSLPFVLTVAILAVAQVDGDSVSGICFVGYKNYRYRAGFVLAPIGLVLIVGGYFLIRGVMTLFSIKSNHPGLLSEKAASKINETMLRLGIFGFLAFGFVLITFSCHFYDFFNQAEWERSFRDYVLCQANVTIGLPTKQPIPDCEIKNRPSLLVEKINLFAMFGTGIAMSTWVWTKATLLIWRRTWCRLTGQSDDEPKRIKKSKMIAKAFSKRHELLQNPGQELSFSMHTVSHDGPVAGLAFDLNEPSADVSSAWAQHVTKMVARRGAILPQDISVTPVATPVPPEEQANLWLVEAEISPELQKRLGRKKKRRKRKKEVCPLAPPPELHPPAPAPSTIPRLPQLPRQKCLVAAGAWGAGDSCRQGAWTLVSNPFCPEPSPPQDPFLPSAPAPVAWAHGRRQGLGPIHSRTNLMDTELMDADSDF

For series [2], the system named is Shh Light II. Kind of series: Inhibition of Shh signaling in mouse Shh-light2 cells at 10 uM by Gli-dependent firefly luciferase reporter gene assay. Format: functional. For orientation: Reporter assays use an easily measured gene product as a stand-in for the process of interest.
The subject of series [3] is Shh Light II. Kind of series: Inhibition of Shh signaling in mouse Shh-light2 cells by Gli-dependent firefly luciferase reporter gene assay. Format: functional, cell-based.
The target of series [4] is CYP3A4 (Homo sapiens, UniProt P08684). Put plainly: Inhibition of CYP3A4 at 10 uM. Format: ADME.
Chain of CYP3A4 (P08684 whole entry): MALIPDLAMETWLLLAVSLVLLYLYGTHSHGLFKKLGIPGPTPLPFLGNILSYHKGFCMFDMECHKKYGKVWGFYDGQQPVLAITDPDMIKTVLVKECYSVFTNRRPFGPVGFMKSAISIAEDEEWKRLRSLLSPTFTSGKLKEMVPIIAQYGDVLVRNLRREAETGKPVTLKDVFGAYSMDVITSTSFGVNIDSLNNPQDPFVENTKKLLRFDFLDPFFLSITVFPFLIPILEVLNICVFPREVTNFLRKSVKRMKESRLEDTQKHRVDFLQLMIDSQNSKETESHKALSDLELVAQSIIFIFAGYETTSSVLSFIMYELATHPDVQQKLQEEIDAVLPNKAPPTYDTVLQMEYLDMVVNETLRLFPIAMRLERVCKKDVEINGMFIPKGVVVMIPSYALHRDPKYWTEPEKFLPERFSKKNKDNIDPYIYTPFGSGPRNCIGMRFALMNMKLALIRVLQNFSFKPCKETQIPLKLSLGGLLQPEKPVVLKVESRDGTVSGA
For series [5], the target named is CYP2C9 (Homo sapiens, UniProt P11712). Put plainly: Inhibition of CYP2C9 at 10 uM. Format: ADME.
Chain of CYP2C9 (P11712 whole entry): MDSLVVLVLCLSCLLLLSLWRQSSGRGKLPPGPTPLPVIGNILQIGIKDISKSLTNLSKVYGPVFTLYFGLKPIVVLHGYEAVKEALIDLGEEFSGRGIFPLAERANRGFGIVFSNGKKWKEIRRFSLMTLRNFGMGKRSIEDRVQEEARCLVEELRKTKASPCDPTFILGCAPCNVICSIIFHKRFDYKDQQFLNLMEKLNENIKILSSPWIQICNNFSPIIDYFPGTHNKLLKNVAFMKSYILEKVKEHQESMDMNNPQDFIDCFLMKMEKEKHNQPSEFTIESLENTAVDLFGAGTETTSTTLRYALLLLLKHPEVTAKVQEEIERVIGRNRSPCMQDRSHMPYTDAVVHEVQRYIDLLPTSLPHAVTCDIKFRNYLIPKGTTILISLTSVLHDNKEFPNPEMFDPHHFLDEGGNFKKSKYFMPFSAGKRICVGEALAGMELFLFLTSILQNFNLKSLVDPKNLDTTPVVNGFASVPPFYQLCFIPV
Series [6] can be described thus: Lipophilicity, log D of the compound. Format: physicochemical. Conditions: octanol/water; call rule not given here.
The target of series [7] is T1, Protein smoothened. Put plainly: Inhibition of Bodipy-labelled cyclopamine binding to Smo expressed in COS-1 cells in presence of 20% NHS after 4 to 6 hrs by FACS flow cytometric analysis. Format: cell-based.
Series [8] has as its target T1, Protein smoothened. Put plainly: Displacement of Bodipy-labelled cyclopamine from Smo expressed in COS-1 cells in presence of 2% FBS after 4 to 6 hrs by FACS flow cytometric analysis. The format is cell-based.
Series [9] can be described thus: Intrinsic clearance in rat liver microsomes assessed per mg of protein. Format: ADME, Microsome.
A short description of series [10]: Clearance in rat. As to conditions: in vivo. The format is ADME, organism-based.
Series [11] is described as follows: Terminal half life in rat. Format: ADME, organism-based. As to conditions: in vivo, read-out: beta t1/2 (converted).
The nature of series [12]: Oral bioavailability in rat. The format is ADME, organism-based. As to conditions: in vivo.
A short description of series [13]: Fraction unbound in human plasma. Format: ADME, cell-free.
The nature of series [14]: Clearance in dog. Conditions: in vivo. Format: ADME, organism-based, Canis lupus familiaris.
A short description of series [15]: Half life in dog. Format: ADME, organism-based, Canis lupus familiaris. Conditions: in vivo.
The nature of series [16]: Intrinsic clearance in human liver microsomes assessed per mg of protein. Format: ADME, Microsome.
Series [17] is described as follows: Induction of cytochrome P450 at 30 uM. The format is ADME.
A short description of series [18]: Inhibition of cytochrome P450 at 30 uM. The format is ADME.
Series [19] can be described thus: Fraction unbound in rat plasma. The format is ADME, cell-free.
Series [20] can be described thus: Intrinsic clearance in dog liver microsomes assessed per mg of protein. Format: ADME, Canis lupus familiaris, Microsome. In general terms: Liver microsomes are vesicles of endoplasmic reticulum, rich in cytochrome P450 enzymes.
The target in series [21] is Potassium voltage-gated channel subfamily H member 2 (hERG), Homo sapiens. Kind of series: Inhibition of human ERG.

Bounds are passed on as bounds.

For orientation: inhibition means the drop in the measured response relative to a control, in per cent. Regarding `COc1ccccc1NC(=O)N1CC(c2nc(-c3ccc4ccccc4n3)no2)C1`, the inhibition in series [1] is 39%. In addition, in series [2], the inhibition at 10 µM was 28%.

One may read the IC50 as the point on the concentration scale where inhibition reaches its midpoint. The logD is lipophilicity at a set pH, counting ionised and neutral species. Read a high logD as higher lipophilicity. Usually microsomal CLint stands for a measure of how fast metabolising enzymes remove a compound, apart from limits set by blood flow. As to `Cn1c(-c2noc(C3CCN(C(=O)Nc4ccccc4Cl)CC3)n2)nc2ccccc21`, the values for the concentration for half-maximal inhibition (IC50) in series [3], in series [7] and in series [8] were 430 nM, 4500 nM and 1000 nM, respectively. For the same compound, the inhibition at 10 µM is 35% in series [4] and 44% in [5]. This compound also came in with a logD in series [6] of 2.85. For the same compound, in [9], the intrinsic clearance (microsomal CLint) is 174 µL/min/mg.

In general, clearance refers to the rate of elimination divided by the concentration. Low values mean a low capacity for elimination, high ones a high capacity for elimination. As for `O=C(NC1CCS(=O)(=O)CC1)N1CCC(c2nc(-c3ccc4ccccc4n3)no2)CC1`, the results for the IC50 in [3], in [7] and in series [8] were 360 nM, 1600 nM and 860 nM, respectively. In series [10], this compound registered a clearance of 40 mL/min/kg. The microsomal CLint in series [9] was 8 µL/min/mg. In addition, the half-life in series [11] is 0.9 h.

The bioavailability is dose-corrected exposure relative to a reference, in per cent. High values mean good availability, low ones poor availability. Consider `Cn1c(-c2noc(N3CCN(C(=O)NC4CCCCC4)CC3)n2)nc2ccccc21`, for which the IC50 worked out at 5 nM in [3], 33 nM in [7] and 3 nM in [8]. This compound showed a bioavailability in series [12] of 10%. In series [10], this compound showed a clearance of 26 mL/min/kg. This compound also yielded a log distribution coefficient (logD) in [6] of 2.57. In [9], this compound yielded a microsomal CLint of 119 µL/min/mg.

As for `COc1ccccc1NC(=O)N1CCC(c2nc(-c3ccc4ccccc4n3)no2)C1` (stereo unspecified), in series [1], the inhibition stood at 38%. Further, the inhibition at 10 µM in [2] is 15%.

A word on the fraction unbound: it is the share of the substance not bound to proteins or other matrix. Take `O=C(NC1CCCCC1)N1CCC(c2nc(-c3ccc4ccccc4n3)no2)CC1`: the IC50 in series [3] came out at 57 nM; in series [7], 1600 nM; in series [8], 280 nM. Further, in [9], the microsomal CLint was greater than 300 µL/min/mg. In series [13], this compound returned a fraction unbound of 0.005.

As for `O=C(NC1CCC(F)(F)CC1)N1CCN(c2nc(-c3ccc4ccccc4n3)no2)CC1`, the half-maximal inhibitory concentration (IC50) in [3] came to 5 nM; in [7], 39 nM. For the same compound, the values for the clearance in [10] and in series [14] were 32 mL/min/kg and 20 mL/min/kg, respectively. In addition, the logD in series [6] is 2.67. The half-life in [15] was 1.1 h; in series [11], 1.3 h. Also, the microsomal CLint is 8 µL/min/mg in series [16] and 61 µL/min/mg in series [9]. Besides, the Activity result in series [17] is given as “Not Active”. Further, the “inhibition (INH)” value in series [18] was “Not Active”.

With `Cn1c(-c2noc(C3CCN(C(=O)NC4CCCCC4)CC3)n2)nc2ccccc21`, the values for the IC50 in series [3], in [7] and in series [8] were 89 nM, 1100 nM and 350 nM, respectively. The compound further had a bioavailability in [12] of 59%. In addition, the clearance in series [10] worked out at 26 mL/min/kg. In series [19], this compound came in with a fraction unbound of 0.02. Further, in series [9], the intrinsic metabolic clearance (microsomal CLint) was found to be 192 µL/min/mg. In series [11], the half-life is 1.3 h.

For `O=C(NC1CCCCC1)N1CCN(c2nc(-c3ccc4ccccc4n3)no2)CC1`, the IC50 in series [3] is 53 nM; in series [7], 180 nM; in [8] it was 45 nM; in [21], greater than 30000 nM. The compound also showed a bioavailability in series [12] of 24%. Moreover, the clearance in [10] turned out to be 54 mL/min/kg; in [14], 16 mL/min/kg. Moreover, in series [6], the logD came out at 2.76. The half-life is 1.4 h in [15] and 1.1 h in [11]. Besides, the intrinsic clearance (microsomal CLint) amounted to 60 µL/min/mg in [16], 189 µL/min/mg in series [9] and 54 µL/min/mg in [20]. In addition, the Activity entry in series [17] is given as “Not Active”. Moreover, in series [18], the “inhibition (INH)” value is listed as “Not Active”.

As to `CS(=O)(=O)c1ccc(NC(=O)N2CCC(c3nc(-c4ccc5ccccc5n4)no3)CC2)c(Cl)c1`, the logD in series [6] amounted to 2.8. For the same compound, the half-maximal inhibitory concentration (IC50) in series [7] was 4100 nM; in series [8], 1500 nM.
